Source: US9802894B2, “α-glucosidase inhibitors” (priority 2015, dated 2017)

What was measured:
[1] = target: α-Glucosidase from Saccharomyces cervisiae; assay type: biochemical; details: in vitro; phosphate buffer pH 6.8, 37° C., substrate 0.7 mM, absorbance at 400 nm; read-out: α-Glucosidase Inhibition (IC50 in μM)
Procedure: Assay Protocol for α-Glucosidase Inhibition (In Vitro α-Glucosidase Inhibition Assay)
α-Glucosidase inhibition assay was performed spectrophotometrically. α-Glucosidase from Saccharomyces cervisiae was dissolved in phosphate buffer (pH 6.8, 50 mM). Test compounds were dissolved in 70% DMSO. In 96-well plates, 20 μL of test sample, 20 μL of enzyme and 135 μL of buffer were added and incubated for 15 minutes at 37° C. After incubation, 25 μL, of p-nitrophenyl-α-D-glucopyranoside (0.7 mM, Sigma Aldrich) was added and the change in absorbance was monitored for 30 minutes at 400 nm. Test compound was replaced by DMSO (7.5% final) as control. Acarbose (Acarbose, Sigma Aldrich) was used as a standard inhibitor.

Compound	IC50 [1]	melting point
O=C(CC(c1c(Cl)cccc1Cl)c1c[nH]c2ccccc12)c1ccccc1 (stereo not shown) [Compound 3m, 3-(2,6-dichlorophenyl)-3-(1H-indol-3-yl)-1-phenylpropan-1-one]	4.3 ± 0.13 µM	119 to 121 °C
Cc1cc(C)c([C@H](CC(=O)c2ccccc2)c2c[nH]c3ccccc23)c(C)c1 [Compound 3c, (S)-3-(1H-Indol-3-yl)-3-mesityl-1-phenylpropan-1-one]	25.2 ± 1.96 µM	169 to 171 °C
O=C(CC(c1ccc(Cl)cc1Cl)c1c[nH]c2ccccc12)c1ccccc1 (stereo not shown) [Compound 3l, 3-(2,4-dichlorophenyl)-3-(1H-indol-3-yl)-1-phenylpropan-1-one]	15.6 ± 0.17 µM	110 to 112 °C
Cc1cccc(C(CC(=O)c2ccccc2)c2c[nH]c3ccccc23)c1 (stereo not shown) [Compound 3n, 3-(1H-indol-3-yl)-1-phenyl-3-(m-tolyl)propan-1-one]	26.3 ± 0.48 µM	130 to 132 °C
Cc1ccc([C@H](CC(=O)c2ccccc2)c2c[nH]c3ccccc23)cc1 [Compound 3d, (S)-3-(1H-Indol-3-yl)-1-phenyl-3-(p-tolyl)propan-1-one]	24 ± 4 µM	153 to 155 °C
O=C(CC(c1cccc([N+](=O)[O-])c1)c1c[nH]c2ccccc12)c1ccccc1 (stereo not shown) [Compound 3p, 3-(1H-indol-3-yl)-3-(3-nitrophenyl)-1-phenylpropan-1-one]	34.6 ± 1.55 µM	105 to 107 °C
COc1ccc([C@H](CC(=O)c2ccc3ccccc3c2)c2c[nH]c3ccccc23)cc1 [Compound 3f, (S)-3-(1H-Indol-3-yl)-3-(4-methoxyphenyl)-1-(naphthalen-2-yl)propan-1-one]	15.2 ± 0.58 µM	159 to 162 °C
COc1ccc([C@H](CC(=O)c2ccccc2)c2c[nH]c3ccccc23)cc1 [Compound 3e, (S)-3-(1H-Indol-3-yl)-3-(4-methoxyphenyl)-1-phenylpropan-1-one]	27.1 ± 0.69 µM	134 to 136 °C
O=C(C[C@@H](c1ccc(Cl)cc1)c1c[nH]c2ccccc12)c1ccc2ccccc2c1 [Compound 3b, (S)-3-(4-Chlorophenyl)-3-(1H-indol-3-yl)-1-(naphthalen-2-yl)propan-1-one]	17.6 ± 0.98 µM	237 to 241 °C
O=C(C[C@@H](c1cccs1)c1c[nH]c2ccccc12)c1ccccc1 [Compound 3k, (R)-3-(1H-Indol-3-yl)-1-phenyl-3-(thiophen-2-yl)propan-1-one]	21.8 ± 0.25 µM	112 to 115 °C
O=C(C[C@@H](c1ccccc1)c1c[nH]c2ccccc12)c1ccc2ccccc2c1 [Compound 3g, (S)-3-(1H-Indol-3-yl)-1-(naphthalen-2-yl)-3-phenylpropan-1-one]	43.9 ± 0.51 µM	166 to 169 °C
O=C(CC(c1cccc(Br)c1)c1c[nH]c2ccccc12)c1ccccc1 (stereo not shown) [Compound 3r, 3-(3-bromophenyl)-3-(1H-indol-3-yl)-1-phenylpropan-1-one]	33.2 ± 0.75 µM	102 to 104 °C
O=C(C[C@@H](c1ccc(Cl)cc1)c1c[nH]c2ccccc12)c1ccccc1 [Compound 3h, (S)-3-(4-Chlorophenyl)-3-(1H-indol-3-yl)-1-phenylpropan-1-one]	37.9 ± 0.86 µM	189 to 192 °C
O=C(C[C@@H](c1ccccc1)c1c[nH]c2ccccc12)c1ccccc1 [Compound 3a, (S)-3 (1H-Indol-3-yl)-1,3-diphenylpropan-1-one]	43.3 ± 0.92 µM	
Cc1ccc([C@H](CC(=O)c2ccc3ccccc3c2)c2c[nH]c3ccccc23)cc1 [Compound 3j, (S)-3-(1H-Indol-3-yl)-1-(naphthalen-2-yl)-3-(p-tolyl)propan-1-one]	18.1 ± 1.9 µM	174 to 177 °C
O=C(CC(c1cccs1)c1c[nH]c2ccccc12)c1ccc2ccccc2c1 (stereo not shown) [Compound 3o, 3-(1H-indol-3-yl)-1-(naphthalen-2-yl)-3-(thiophen-2-yl)propan-1-one]	11.8 ± 0.06 µM	
Cc1cc(C)c([C@H](CC(=O)c2ccc3ccccc3c2)c2c[nH]c3ccccc23)c(C)c1 [Compound 3i, (S)-3-(1H-Indol-3-yl)-3-mesityl-1-(naphthalen-2-yl)propan-1-one]	15.1 ± 0.4 µM	227 to 229 °C
O=C(CC(c1ccc(Br)cc1)c1c[nH]c2ccccc12)c1ccccc1 (stereo not shown) [Compound 3q, 3-(4-bromophenyl)-3-(1H-indol-3-yl)-1-phenylpropan-1-one]	24.9 ± 1.61 µM	95 to 97 °C
